Assay results reported in patent US20220411362A1, “DITERPENOID COMPOUNDS THAT ACT ON PROTEIN KINASE C (PKC)” (K-Gen, Inc., priority 2019, published 2022).
Where two headings read alike, the source gives them in different places.

Tests used:
[1] = Pharmacokinetic study, intravenous bolus injection in rats; assay type: in vivo; conditions: Sprague Dawley; for concentration at 0.0167 hour / concentration at 0.0833 hour / concentration at 0.25 hour / concentration at 0.5 hour / concentration at 1 hour / concentration at 2 hour / concentration at 4 hour / concentration at 7 hour / concentration at 24 hour / Vd: plasma, rat; for concentration at 0.0167 hour: 0.0167 hour post dose; for concentration at 0.0167 hour / concentration at 0.0833 hour / concentration at 0.25 hour / concentration at 0.5 hour / concentration at 1 hour / concentration at 2 hour / concentration at 4 hour / concentration at 7 hour / concentration at 24 hour: read-out: Concentration in Rat Plasma after Bolus Injection, Mean; for concentration at 0.0833 hour: 0.0833 hour post dose; for concentration at 0.25 hour: 0.25 hour post dose; for concentration at 0.5 hour: 0.5 hour post dose; for concentration at 1 hour: 1 hour post dose; for concentration at 2 hour: 2 hour post dose; for concentration at 4 hour: 4 hour post dose; for concentration at 7 hour: 7 hour post dose; for concentration at 24 hour: 24 hour post dose; for AUC(0-t) / C0 / MRT inf / clearance / half-life / Vd: rat plasma; for Vd: iv
Method: Pharmacokinetic (PK) studies were conducted for compounds described in this disclosure, and the PK study of K101-C1327 administered by intravenous injection in rats is given as an example. Briefly, K101-C1327 was dissolved in a pH 5 buffer solution at the concentrations of 2.0 mg/mL, and diluted to 0.04 and 0.08 mg/mL to achieve the doses of 0.1 and 0.2 mg/kg with a dosing volume of 2.5 mL/kg, respectively. The K101-C1327 dosing solutions were administered via intravenous bolus injection in 3 rats (Sprague Dawley). Plasma samples were taken at 1 minute, 5 minutes, 15 minutes, 30 minutes, 1 hour, 2 hours, 4 hours, 7 hours, and 24 hours. The drug concentrations at each time point were determined by LC-MS. The results of drug concentrations and pharmacokinetic parameters are presented in the Table 6 and Table 7, respectively, below.

[2] = test system: phosphorylation of PKCμ, PKCδ and Erk1/2 in A549 lung cancer cells; assay type: cell-based; conditions: 0.3 μM, 30 minutes, Western blot (FIG. 1)
Method: Cells were then treated with different drugs at indicated concentrations for 30 minutes. […] Imagequant LAS4000 (GE) was used to scan membranes if secondary antibodies anti-mouse IgG HRP conjugate or anti-rabbit IgG HRP conjugate (dilutions from 1:2000-1:10000) were used. For ProteinSimple Wes system, manufacture's procedure was followed (ProteinSimple 12-230 kDa Wes Separation Module) for sample preparation, loading, running, and data analysis.
Phosphorylation of these sites has been linked to acute activation or catalytic activity of the PKC isoforms and Erk1/2. High level of phosphorylation indicates strong activation.

CC1=C[C@H]2[C@@]3(O)[C@H](C)C[C@]4(OC(=O)[C@@H](N)CC5CCCCC5)[C@H]([C@@H]3C=C(CO)C[C@]2(O)C1=O)C4(C)C [Compound K101-C1327]
concentration at 0.0167 hour ([1]; dose 0.1 mg/kg): 216 ng/mL
concentration at 0.0833 hour ([1]; dose 0.1 mg/kg): 49.2 ng/mL
concentration at 0.25 hour ([1]; dose 0.1 mg/kg): 28.7 ng/mL
concentration at 0.5 hour ([1]; dose 0.1 mg/kg): 19.4 ng/mL
concentration at 1 hour ([1]; dose 0.1 mg/kg): 14.6 ng/mL
concentration at 2 hour ([1]; dose 0.1 mg/kg): 5 ng/mL
concentration at 4 hour ([1]; dose 0.1 mg/kg): 1 ng/mL
concentration at 7 hour ([1]; dose 0.1 mg/kg): < 1 ng/mL
concentration at 24 hour ([1]; dose 0.1 mg/kg): < 1 ng/mL
concentration at 0.0167 hour ([1]; dose 0.2 mg/kg): 334 ng/mL
concentration at 0.0833 hour ([1]; dose 0.2 mg/kg): 102 ng/mL
concentration at 0.25 hour ([1]; dose 0.2 mg/kg): 65 ng/mL
concentration at 0.5 hour ([1]; dose 0.2 mg/kg): 43.6 ng/mL
concentration at 1 hour ([1]; dose 0.2 mg/kg): 37.6 ng/mL
concentration at 2 hour ([1]; dose 0.2 mg/kg): 29.1 ng/mL
concentration at 4 hour ([1]; dose 0.2 mg/kg): 6 ng/mL
concentration at 7 hour ([1]; dose 0.2 mg/kg): < 1 ng/mL
concentration at 24 hour ([1]; dose 0.2 mg/kg): < 1 ng/mL
AUC(0-t) ([1]; 0.1 mg/kg): 48.3 ng·h/mL
C0 ([1]; 0.1 mg/kg): 314 ng/mL
MRT inf ([1]; 0.1 mg/kg): 0.873 h
clearance ([1]; 0.1 mg/kg): 32.9 mL/min/kg
half-life ([1]; 0.1 mg/kg): 0.857 h
AUC(0-t) ([1]; 0.2 mg/kg): 119 ng·h/mL
C0 ([1]; 0.2 mg/kg): 450 ng/mL
MRT inf ([1]; 0.2 mg/kg): 2.93 h
clearance ([1]; 0.2 mg/kg): 21.5 mL/min/kg
half-life ([1]; 0.2 mg/kg): 2.29 h
Vd ([1]; 0.1 mg/kg, 0.1 mg/kg, read-out: Vss): 1.73 L/kg
Vd ([1]; 0.1 mg/kg, 0.1 mg/kg, read-out: Vz): 2.44 L/kg
Vd ([1]; 0.2 mg/kg, 0.2 mg/kg, read-out: Vss): 2.77 L/kg
Vd ([1]; 0.2 mg/kg, 0.2 mg/kg, read-out: Vz): 3.25 L/kg
phosphorylation of PKC (PKD/PKCμ), PKCδ and Erk1/2 [2]: induced high levels of phosphorylation
